Reference: patent US10364233B2, “Piperidine derivative and methods of use thereof” (vTv Therapeutics LLC, priority 2016, dated 2019)
Read-outs that look alike come from different tables or passages of the source.

Key:
[1] = biological target: sRAGE (S100b as the RAGE ligand) (Homo sapiens, UniProt Q15109); assay: General binding assay: inhibition of sRAGE binding to plate-bound S100b; conditions: n = 13, hydrochloride salt
Method: (§1) The following is one potential method for screening. S100b or β-amyloid (500 ng/100 μL/well) in 100 mM sodium bicarbonate/sodium carbonate buffer (pH 9.8) is loaded onto the wells of a NUNC Maxisorp flat bottom 96-well microtitre plate. The plate is incubated at 4° C. overnight. The wells are aspirated and treated with 50 mM imidazole buffer saline (pH 7.2) (with 5 mM CaCl2)/MgCl2) containing 1% bovine serum albumin (BSA) (300 μL/well) for 1 h at RT. The wells are aspirated.
(§2) The test compound is dissolved in nanopure water (concentration: 10-100 μM). DMSO may be used as co-solvent. 25 μL of test compound solution in 4% DMSO is added, along with 75 μL sRAGE (6 nM FAC) to each well and samples are incubated for 1 h at 37° C. The wells are washed several times with 155 mM NaCl pH 7.2 buffer saline and are soaked for several seconds between each wash.
(§3) Non-Radioactive Detection is Performed by Adding:
(§4) 10 μL Biotinylated goat F(ab′)2 Anti-mouse IgG. […]
(§5) 100 μL of complex is added to each well and incubation is allowed to proceed at rt for 1 h. […] The reaction is quenched with 10 μL of stop solution (0.5-1.0 N NaOH in 50% ethanol) and the absorbance is measured spectrophotometrically with a microplate reader at 405 nm. […]

[2] = test system: S100b mediated TNF release from THP-1 cells (RAGE signaling); assay: Functional assay: inhibition of S100b mediated TNF release from THP-1 cells; format: cell-based; conditions: Homo sapiens; THP-1 cells stimulated with bovine S100b; TNF-alpha by ELISA after 24 hours; hydrochloride salt
Method: Previously the literature has cited that THP-1 cells in response to RAGE ligands secrete TNF alpha (Yeh C-H, et al. Diabetes. Vol. 50, June 2001, pp. 1495-1504). The following assay method may be used to identify compounds of Formula (I) or pharmaceutically acceptable salts thereof which are useful as antagonists of RAGE signaling.
The myeloid cell line, THP-1 (ATTC # TIB-202), is cultured in RPMI-1640 media (ATCC, Cat #30-2001) supplemented with fetal bovine serum to a final concentration of 10% by volume and Penicillin-Streptomycin (Gibco, Cat #0.15140-122). Alternatively, media may be formulated using RPMI 1640 (Bio-Whitaker #12-702F) supplemented with 2 mM L-glutamine (Gibco #12381-018) adjusted to contain 1.5 g/L sodium bicarbonate (Gibco #25080-094), 4.5 g/L glucose, 10 mM HEPES (Cellgro #25-060-L1) and 1.0 mM sodium pyruvate (Gibco #11360-070) and supplemented with 0.05 mM 2-mercaptoethanol, […] per ATCC instructions. During culture, the culture cells may be maintained at a density between 5×10^4 and 1×10^6 viable cells/mL. […]
The amount of TNF-alpha secreted by the THP-1 cells may be measured 24 hours after the addition of the stimulant proteins to the cell culture using a commercially available ELISA kit (R&D Systems, Minneapolis, Minn. # DY210). […] The plate may be read at 450 nm within 30 minutes. […]

[3] = biological target: sRAGE (β-amyloid as the RAGE ligand) (Homo sapiens, UniProt Q15109); assay: General binding assay: inhibition of sRAGE binding to plate-bound β-amyloid; conditions: n = 11, hydrochloride salt
UniProt Q15109, sequence (Q15109 23-342 limits assumed): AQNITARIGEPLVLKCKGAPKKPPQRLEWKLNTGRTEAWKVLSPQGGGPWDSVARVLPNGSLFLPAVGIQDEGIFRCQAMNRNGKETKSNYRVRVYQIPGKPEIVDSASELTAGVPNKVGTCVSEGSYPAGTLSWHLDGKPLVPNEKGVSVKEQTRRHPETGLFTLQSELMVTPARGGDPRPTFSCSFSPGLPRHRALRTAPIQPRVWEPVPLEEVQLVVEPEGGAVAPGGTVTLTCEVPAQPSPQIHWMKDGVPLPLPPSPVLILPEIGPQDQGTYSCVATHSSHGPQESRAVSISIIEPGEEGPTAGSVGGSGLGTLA
Method: as §1, §2, §3, §4, §5

UniProt Q15109, sequence (Q15109 23-342 limits assumed): as above

- IC50 ([1]; average, read-out: IC50 (S100b) average): 420 nM
- IC50 ([1]; range of individual determinations, read-out: IC50 (S100b)): 220 to 620 nM
- IC50 [2]: ~500 nM
- IC50 ([3]; average, read-out: IC50 (β-amyloid) average): 400 nM
- IC50 ([3]; range of individual determinations, read-out: IC50 (β-amyloid)): 270 to 600 nM
Structure (SMILES): Cc1nn(C2CCCCC2)c(C)c1S(=O)(=O)N1CCC(CN(CC(C)C)S(=O)(=O)c2ccc(CNCC3CCNCC3)cc2)(c2ccccc2)CC1 [compound of Formula (I), N-[1-(1-Cyclohexyl-3,5-dimethyl-1H-pyrazole-4-sulfonyl)-4-phenyl-piperidin-4-ylmethyl]-N-isobutyl-4-{[(piperidin-4-ylmethyl)-amino]-methyl}-benzenesulfonamide]
